Results as given in the supplement of paper PMC6045584.
± gives the standard deviation of the averaged measurements.

Experiments:
[1] = compound: C[C@@H](Oc1cc(-c2cnn(C3CCNCC3)c2)cnc1N)c1c(Cl)ccc(F)c1Cl; assay: surviving fraction relative to DMSO-only wells; higher = less growth inhibition; conditions: exposure time: 5 days
In short: (§1)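 Inhibitors at 0.5, 1, 5, 10, 50, 100, 500 and 1000 nM were applied continuously for five days to tumour cell lines seeded in log phase at 250–500 cells per well in 384-well plates 24 hours earlier. Viability was measured by CellTiter-Glo luminescence and expressed as surviving fraction relative to the median of DMSO-only wells. Luminescence was taken after 10 minutes at room temperature.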

SORAFENIB = compound: CNC(=O)c1cc(Oc2ccc(NC(=O)Nc3ccc(Cl)c(C(F)(F)F)c3)cc2)ccn1 [SORAFENIB]; assay: as above; conditions: exposure time: 5 days
In short: as §1

Test System | surviving fraction ([1]; 0.5 nM) | surviving fraction ([1]; 1 nM) | surviving fraction ([1]; 10 nM) | surviving fraction ([1]; 50 nM) | surviving fraction ([1]; 100 nM) | surviving fraction ([1]; 500 nM) | surviving fraction ([1]; 1000 nM) | surviving fraction (SORAFENIB; 0.5 nM) | surviving fraction (SORAFENIB; 5 nM) | surviving fraction (SORAFENIB; 10 nM) | surviving fraction (SORAFENIB; 50 nM) | surviving fraction (SORAFENIB; 100 nM) | surviving fraction (SORAFENIB; 500 nM) | surviving fraction (SORAFENIB; 1000 nM) | surviving fraction ([1]; 5 nM) | surviving fraction (SORAFENIB; 1 nM)
NOS1 BONE | 0.889 ± 0.05 | 0.856 ± 0.046 | 0.929 ± 0.1 | 1.17 ± 0.06 | 0.988 ± 0.04 | 0.742 ± 0.055 | 0.401 ± 0.026 | 1.04 ± 0.11 | 1.12 ± 0.17 | 0.997 ± 0.058 | 0.995 ± 0.053 | 0.874 ± 0.056 | 0.684 ± 0.0075 | 0.613 ± 0.062 |  | 
NY BONE | 0.948 ± 0.02 | 0.9253 ± 0.0076 | 0.9633 ± 0.0086 | 0.9303 ± 0.0083 | 0.885 ± 0.022 | 0.701 ± 0.03 | 0.524 ± 0.018 | 1.01 ± 0.019 | 1.04 ± 0.035 | 1.01 ± 0.027 | 1.08 ± 0.036 | 1.07 ± 0.044 | 1.02 ± 0.013 | 1.034 ± 0.0083 | 0.959 ± 0.0089 | 0.975 ± 0.033
OS25HAL BONE | 0.913 ± 0.013 |  | 0.9 ± 0.014 | 0.969 ± 0.017 | 0.937 ± 0.016 | 0.813 ± 0.1 | 0.285 ± 0.043 | 0.99 ± 0.023 | 1.03 ± 0.035 |  | 1.06 ± 0.018 | 1.01 ± 0.049 | 0.855 ± 0.077 | 0.645 ± 0.056 | 0.92 ± 0.015 | 0.984 ± 0.0092
OSHN BONE | 0.908 ± 0.013 | 0.9047 ± 0.0064 | 0.9 ± 0.01 | 0.992 ± 0.023 | 0.971 ± 0.018 | 0.868 ± 0.013 | 0.189 ± 0.029 | 1.06 ± 0.024 | 1.07 ± 0.018 | 1.05 ± 0.015 | 1.09 ± 0.037 | 1.06 ± 0.014 | 1.08 ± 0.025 | 1.05 ± 0.013 | 0.91 ± 0.0079 | 1.047 ± 0.0099
PCI30 HEADNECK | 0.959 ± 0.036 |  |  | 1.06 ± 0.076 | 1.11 ± 0.046 | 0.679 ± 0.039 | 0.513 ± 0.016 | 1.04 ± 0.038 | 1.02 ± 0.045 | 1.04 ± 0.06 | 1.06 ± 0.098 | 1.11 ± 0.096 | 1.11 ± 0.059 | 1.12 ± 0.013 | 1.07 ± 0.058 | 
RDES SOFT TISSUE | 0.735 ± 0.13 | 0.716 ± 0.093 | 0.69 ± 0.075 | 1.02 ± 0.19 | 0.926 ± 0.17 | 1.26 ± 0.02 | 0.127 ± 0.023 | 1.24 ± 0.085 | 1.18 ± 0.1 | 0.918 ± 0.1 | 1.15 ± 0.058 | 1.24 ± 0.066 | 1.18 ± 0.13 | 1.09 ± 0.1 | 0.832 ± 0.028 | 1.12 ± 0.098
S68 BREAST | 0.733 ± 0.09 | 0.819 ± 0.31 | 0.838 ± 0.19 |  | 0.847 ± 0.16 | 0.567 ± 0.19 | 0.398 ± 0.084 |  | 1.06 ± 0.083 | 1.13 ± 0.18 | 1.29 ± 0.099 | 1.12 ± 0.27 | 1.02 ± 0.079 | 0.895 ± 0.32 |  | 0.963 ± 0.22
SAOS2 BONE | 0.7737 ± 0.0011 | 0.866 ± 0.018 | 0.874 ± 0.036 | 1.06 ± 0.08 | 0.971 ± 0.046 | 0.319 ± 0.012 | 0.164 ± 0.012 | 0.935 ± 0.028 | 1.072 ± 0.0081 | 1.04 ± 0.064 | 1.17 ± 0.017 | 1.237 ± 0.0023 | 1.196 ± 0.01 | 1.07 ± 0.079 |  | 1.019 ± 0.0098
SCC003 HEADNECK | 0.763 ± 0.099 |  | 0.818 ± 0.03 | 1.04 ± 0.047 | 0.982 ± 0.047 | 0.672 ± 0.081 | 0.417 ± 0.025 | 0.898 ± 0.11 |  |  | 1.12 ± 0.18 | 1.11 ± 0.081 | 1.24 ± 0.097 |  | 0.835 ± 0.042 | 1.05 ± 0.12
SCC36 HEADNECK | 0.784 ± 0.039 | 0.784 ± 0.07 | 0.742 ± 0.071 | 0.913 ± 0.021 |  | 0.403 ± 0.022 | 0.255 ± 0.011 |  | 1.15 ± 0.11 | 1.18 ± 0.018 | 1.18 ± 0.16 | 1.17 ± 0.056 | 1.2 ± 0.049 | 1.18 ± 0.065 | 0.742 ± 0.077 | 1.02 ± 0.064
SCC47 HEADNECK | 0.909 ± 0.012 | 0.9017 ± 0.0072 | 0.924 ± 0.037 | 1.06 ± 0.031 | 0.96 ± 0.066 | 0.721 ± 0.017 | 0.472 ± 0.024 | 1.04 ± 0.067 | 1.08 ± 0.029 | 0.974 ± 0.067 | 1 ± 0.053 | 1.01 ± 0.068 | 0.907 ± 0.065 | 0.825 ± 0.028 | 0.988 ± 0.018 | 0.998 ± 0.071
SCC90 HEADNECK |  | 0.913 ± 0.028 |  | 1.12 ± 0.098 | 1.17 ± 0.13 | 0.717 ± 0.028 |  | 1.16 ± 0.083 | 1.37 ± 0.12 | 1.3 ± 0.097 |  | 0.797 ± 0.076 | 1.01 ± 0.083 | 1.12 ± 0.069 | 0.934 ± 0.045 | 1.23 ± 0.13
SG27 HEADNECK | 1.01 ± 0.016 |  | 0.893 ± 0.07 | 1 ± 0.089 | 0.92 ± 0.045 |  | 0.668 ± 0.053 | 1.04 ± 0.056 | 1.18 ± 0.041 | 1.13 ± 0.074 | 1.03 ± 0.04 | 1.22 ± 0.1 | 1.27 ± 0.045 | 1.3 ± 0.051 |  | 1.01 ± 0.059
SG28 HEADNECK |  | 0.918 ± 0.053 |  | 1 ± 0.042 | 1.07 ± 0.098 |  | 0.764 ± 0.12 | 1.17 ± 0.13 | 1.18 ± 0.1 | 1.22 ± 0.18 | 1.21 ± 0.066 | 1.27 ± 0.1 | 1.44 ± 0.19 | 1.32 ± 0.14 | 0.85 ± 0.067 | 
SG31 HEADNECK |  | 0.821 ± 0.04 | 0.843 ± 0.18 | 0.847 ± 0.063 | 0.845 ± 0.088 | 0.755 ± 0.061 | 0.485 ± 0.07 | 1.03 ± 0.11 | 1.09 ± 0.092 | 1.08 ± 0.15 | 1.2 ± 0.31 | 1.07 ± 0.092 | 1.4 ± 0.22 | 1.22 ± 0.13 | 0.821 ± 0.059 | 1.1 ± 0.11
SG32 HEADNECK | 0.809 ± 0.17 | 0.907 ± 0.093 | 0.799 ± 0.11 | 0.955 ± 0.15 |  | 0.475 ± 0.06 | 0.359 ± 0.092 | 1.2 ± 0.15 | 1.33 ± 0.044 | 1.42 ± 0.35 | 1.76 ± 0.68 | 1.62 ± 0.26 | 1.53 ± 0.35 | 1.56 ± 0.36 | 0.931 ± 0.15 | 1.47 ± 0.68
